Measurements published in patent US20090311237A1, “Combination therapy using a soluble hyaluronidase and a bisphosphonate” (priority 2008, published 2009).
Where two headings read alike, the source gives them in different places.

Test: Pharmacokinetics of ZA in pig serum after IV or SC infusion with or without rHuPH20 (LC-MS-MS, non-compartmental analysis)
Assay type: in vivo
Conditions: female, Yorkshire, pig, serum, […]
Procedure: A pharmacokinetic study of zoledronic acid (ZA) co-administered with rHuPH20 in female Yorkshire swines was conducted. The primary objective of the study was to determine the bioavailability of zoledronic acid dosed via subcutaneous (SC) co-administration with human recombinant hyaluronidase PH20 (rHuPH20) and to compare the overall exposure to an equivalent IV dose.
Animals in Study Group 1 were dosed with 0.15 mg/kg ZA given via a 20-minute IV infusion. Animals in Study Groups 2 and 3 were dosed subcutaneously (SC) with 0.15 mg/kg ZA without and with rHuPH20, respectively, in different SC delivery volumes.
Following ZA dose administration, serial blood samples were collected via vascular access ports (VAPs) for serum preparation and determination of ZA concentrations. Blood collection times were at 1, 3, 5, 10, 15, 20, 30, 45, and 60 minutes, and at 1.5, 2, 3, 4, 6, 8, 10, 24, 48, and 72 hours post dose. Urine samples were also collected to compare excretion characteristics between IV and SC routes of administration. Collection times for urine were at 15 minutes before dosing (−15 min.), continuously from dose initiation to 2 hours post dose, and at 4, 6, 8, and 24 hours post dose thereafter.
Serum concentration of ZA was determined using a qualified LC-MS-MS assay after derivatization with diazomethane (Zhu, L S et al. (2006) Rapid Commun. Mass Spectrom. 20: 3421-3426; “Qualification Data of An LC-MS/MS Method for the Determination of Zoledronate in Porcine Serum”, MDS Pharma Services Study No. AA43671-01, Report Date 14 Sep. 2007). The assay range was from 2.0 to 400 ng/mL with a lower limit of quantitation (LLOQ) at 2.0 ng/mL. Urine concentration of ZA was determined by a similar well qualified LC-MS-MS method (“Qualification Data of An LC-MS/MS Method for the Determination of Zoledronate in Porcine Urine”, MDS Pharma Services Study No. AA43671-02, Report Date 14 Sep. 2007) with an assay LLOQ at 10 ng/mL.
Pharmacokinetic (PK) analyses of ZA serum concentration versus time data were conducted using WinNonlin v5.1 (Pharsight, Mountain View, Calif.). Non-compartmental analysis was used for derivation of primary and secondary pharmacokinetic (PK) parameters. AUC, Cmax, and Tmax were compared between dose routes, between co-administration with rHuPH20, and with dose of rHuPH20.

[1] = intravenous, animal ID 61, Study Group 1, IV 20 min infusion, ZA […], rHuPH20 0 U/mL, read-out: Zoledronic Acid Serum Concentration
[2] = intravenous, animal ID 67, Study Group 1, IV 20 min infusion, ZA […], rHuPH20 0 U/mL, read-out: Zoledronic Acid Serum Concentration

SMILES: O=P(O)(O)C(O)(Cn1ccnc1)P(=O)(O)O [ZA, 1-hydroxy-2-(1H-imidazol-1-yl)ethylidene-1,1-bisphosphonic acid]
- concentration at 2 h [1]: 18.8 ng/mL
- concentration at 3 h [1]: 6.1 ng/mL
- concentration at 4 h [1]: 3.3 ng/mL
- concentration at 0.05 h (intravenous, animal ID 67, Study Group 1, IV 20 min infusion, ZA […], rHuPH20 0 U/mL, time 0.05 h, read-out: Zoledronic Acid Serum Concentration): 288 ng/mL
- concentration at 0.333 h (intravenous, animal ID 67, Study Group 1, IV 20 min infusion, ZA […], rHuPH20 0 U/mL, time 0.333 h, read-out: Zoledronic Acid Serum Concentration): 556 ng/mL
- concentration at 0.5 h (intravenous, animal ID 67, Study Group 1, IV 20 min infusion, ZA […], rHuPH20 0 U/mL, time 0.5 h, read-out: Zoledronic Acid Serum Concentration): 246 ng/mL
- concentration at 1 h (intravenous, animal ID 67, Study Group 1, IV 20 min infusion, ZA […], rHuPH20 0 U/mL, time 1 h, read-out: Zoledronic Acid Serum Concentration): 77.8 ng/mL
- concentration at 2 h [2]: 16.6 ng/mL
- concentration at 3 h [2]: 6.67 ng/mL
- concentration at 4 h [2]: 3.35 ng/mL
- clearance (iv, absolute clearance by non-compartmental analysis of the IV dose (from Table 13), used for Study Groups 2 and 3, read-out: Serum CL (converted)): 7.34 mL/min/kg
- clearance (iv, ZA […] 20-min IV infusion, individual pigs 57, 61, 67, read-out: CL (converted)): 6.76 mL/min/kg
- Tmax (iv, ZA […] 20-min IV infusion, individual pigs 57, 61, 67, read-out: Tmax): 15 min
- half-life (iv, ZA […] 20-min IV infusion, individual pigs 57, 61, 67, read-out: T½ λz (converted)): 37.8 min
- Vd (iv, ZA […] 20-min IV infusion, individual pigs 57, 61, 67, read-out: Vss): 0.104 L/kg
- Vd (iv, ZA […] 20-min IV infusion, individual pigs 57, 61, 67, read-out: Vz): 0.371 L/kg
- clearance (iv, ZA […] 20-min IV infusion, n=3, read-out: CL, mean (converted)): 7.34 mL/min/kg
- clearance (iv, ZA […] 20-min IV infusion, n=3, read-out: CL, median (converted)): 7.36 mL/min/kg
- Tmax (iv, ZA […] 20-min IV infusion, n=3, read-out: Tmax, mean): 15 min
- Tmax (iv, ZA […] 20-min IV infusion, n=3, read-out: Tmax, median): 15 min
- half-life (iv, ZA […] 20-min IV infusion, n=3, read-out: T½ λz, mean (converted)): 43.2 ± 4.8 min
- half-life (iv, ZA […] 20-min IV infusion, n=3, read-out: T½ λz, median (converted)): 44.4 min
- Vd (iv, ZA […] 20-min IV infusion, n=3, read-out: Vss, mean): 0.123 L/kg
- Vd (iv, ZA […] 20-min IV infusion, n=3, read-out: Vss, median): 0.131 L/kg
- Vd (iv, ZA […] 20-min IV infusion, n=3, read-out: Vz, mean): 0.458 ± 0.0759 L/kg
- Vd (iv, ZA […] 20-min IV infusion, n=3, read-out: Vz, median): 0.498 L/kg
- CL/F (sc, pig 59, SC ZA […], 100 mL over 16 min, no rHuPH20, read-out: CL/F (converted)): 7.97 mL/min/kg
- Tmax (sc, pig 59, SC ZA […], 100 mL over 16 min, no rHuPH20, read-out: Tmax): 20 min
- half-life (sc, pig 59, SC ZA […], 100 mL over 16 min, no rHuPH20, read-out: T½ λz (converted)): 66 min
- Vd/F (sc, pig 59, SC ZA […], 100 mL over 16 min, no rHuPH20, read-out: Vss/F): 0.617 L/kg
- Vd/F (sc, pig 59, SC ZA […], 100 mL over 16 min, no rHuPH20, read-out: Vz/F): 0.76 L/kg
- CL/F (sc, pig 60, SC ZA […], 100 mL over 16 min, no rHuPH20, read-out: CL/F (converted)): 6.97 mL/min/kg
- bioavailability (sc, pig 60, SC ZA […], 100 mL over 16 min, no rHuPH20, read-out: SC Bioavailability (0-1 h)): 55.5%
- bioavailability (sc, pig 60, SC ZA […], 100 mL over 16 min, no rHuPH20, read-out: SC Bioavailability (0-8 h)): 105%
- Tmax (sc, pig 60, SC ZA […], 100 mL over 16 min, no rHuPH20, read-out: Tmax): 20 min
- half-life (sc, pig 60, SC ZA […], 100 mL over 16 min, no rHuPH20, read-out: T½ λz (converted)): 52.2 min
- Vd/F (sc, pig 60, SC ZA […], 100 mL over 16 min, no rHuPH20, read-out: Vss/F): 0.526 L/kg
- Vd/F (sc, pig 60, SC ZA […], 100 mL over 16 min, no rHuPH20, read-out: Vz/F): 0.524 L/kg
- CL/F (sc, pig 62, SC ZA […], 50 mL over 8 min, no rHuPH20, read-out: CL/F (converted)): 10.2 mL/min/kg
- bioavailability (sc, pig 62, SC ZA […], 50 mL over 8 min, no rHuPH20, read-out: SC Bioavailability (0-1 h)): 54%
- bioavailability (sc, pig 62, SC ZA […], 50 mL over 8 min, no rHuPH20, read-out: SC Bioavailability (0-8 h)): 71.9%
- Tmax (sc, pig 62, SC ZA […], 50 mL over 8 min, no rHuPH20, read-out: Tmax): 10 min
- half-life (sc, pig 62, SC ZA […], 50 mL over 8 min, no rHuPH20, read-out: T½ λz (converted)): 58.2 min
- Vd/F (sc, pig 62, SC ZA […], 50 mL over 8 min, no rHuPH20, read-out: Vss/F): 0.634 L/kg
- Vd/F (sc, pig 62, SC ZA […], 50 mL over 8 min, no rHuPH20, read-out: Vz/F): 0.852 L/kg
- CL/F (sc, pig 69, SC ZA […], 25 mL over 4 min, no rHuPH20, read-out: CL/F (converted)): 9.28 mL/min/kg
- bioavailability (sc, pig 69, SC ZA […], 25 mL over 4 min, no rHuPH20, read-out: SC Bioavailability (0-1 h)): 56.9%
- bioavailability (sc, pig 69, SC ZA […], 25 mL over 4 min, no rHuPH20, read-out: SC Bioavailability (0-8 h)): 78.8%
- Tmax (sc, pig 69, SC ZA […], 25 mL over 4 min, no rHuPH20, read-out: Tmax): 10 min
- half-life (sc, pig 69, SC ZA […], 25 mL over 4 min, no rHuPH20, read-out: T½ λz (converted)): 60.6 min
- Vd/F (sc, pig 69, SC ZA […], 25 mL over 4 min, no rHuPH20, read-out: Vss/F): 0.652 L/kg
- Vd/F (sc, pig 69, SC ZA […], 25 mL over 4 min, no rHuPH20, read-out: Vz/F): 0.811 L/kg
- CL/F (sc, pig 70, SC ZA […], 10 mL over 1.6 min, no rHuPH20, read-out: CL/F (converted)): 7.69 mL/min/kg
- bioavailability (sc, pig 70, SC ZA […], 10 mL over 1.6 min, no rHuPH20, read-out: SC Bioavailability (0-1 h)): 66.5%
- bioavailability (sc, pig 70, SC ZA […], 10 mL over 1.6 min, no rHuPH20, read-out: SC Bioavailability (0-8 h)): 95.1%
- Tmax (sc, pig 70, SC ZA […], 10 mL over 1.6 min, no rHuPH20, read-out: Tmax): 10 min
- half-life (sc, pig 70, SC ZA […], 10 mL over 1.6 min, no rHuPH20, read-out: T½ λz (converted)): 85.2 min
- Vd/F (sc, pig 70, SC ZA […], 10 mL over 1.6 min, no rHuPH20, read-out: Vss/F): 0.615 L/kg
- Vd/F (sc, pig 70, SC ZA […], 10 mL over 1.6 min, no rHuPH20, read-out: Vz/F): 0.947 L/kg
- CL/F (sc, SC ZA […], no rHuPH20 (Study Group 2), n=4, read-out: CL/F, mean (converted)): 8.52 mL/min/kg
- CL/F (sc, SC ZA […], no rHuPH20 (Study Group 2), n=4, read-out: CL/F, median (converted)): 8.48 mL/min/kg
- bioavailability (sc, SC ZA […], no rHuPH20 (Study Group 2), n=4, read-out: SC Bioavailability (0-1 h), mean): 58.2%
- bioavailability (sc, SC ZA […], no rHuPH20 (Study Group 2), n=4, read-out: SC Bioavailability (0-1 h), median): 56.2%
